Measurements as given in patent US7642249B2, “Dihydrogen phosphate salt of a prostaglandin D2 receptor antagonist” (Aventis Pharmaceuticals Inc., priority 2005, dated 2010).
Converted amounts (≈) assume the structure as drawn. Where a name gives a salt, the structure may show the parent alone.

Assays:
Type in all cases: physicochemical
[1] = Solubility in simulated intestinal fluid under fasted conditions (FaSSIF)
Description: (§1) The dihydrogen phosphate salt has increased aqueous solubility over the free form and the hydrochloride salt. The following chart lists the solubilities of the free form, the hydrochloride salt and the dihydrogen phosphate salt at 25° C. in phosphate buffer (PBS pH 7.4, a mixture of 19% of a 0.1M monobasic sodium phosphate solution and 81% of a 0.1M dibasic sodium phosphate solution) and the solubilities of the free form and the dihydrogen phosphate salt 37° C. in a simulated intestinal fluid under fasted conditions (“FaSSIF”, prepared according to Dressman J. B., Amidon G. L., Reppas C. and Shah V. P., Dissolution testing as a prognostic tool for oral drug absorption: immediate release dosage forms, Pharmaceutical Research: 1998, Vol. 15, No. 1, 11-22).

[2] = Solubility in phosphate buffer (PBS pH 7.4)
Description: as §1

[3] = Dynamic water vapor sorption (DVS) hygroscopicity; conditions: at 94% relative humidity (RH)
Description: Dynamic Water Vapor Sorption (DVS)
The water sorption profile is determined using a SMS Instruments Dynamic Vapor Sorption Analyzer Model DVS-1 or VTI Instruments Model SGA-100 Dynamic Vapor Sorption Analyzer. RH and weight are calibrated using standards. The dihydrogen phosphate salt is loaded and dried at ≦1% RH for 2.5 hours prior to starting the experiment. The RH is stepped from about 0 to 95% RH. The specimen weight is considered constant at each step when percent mass change is less than 0.005% over a 5-minute interval with a minimum absolute equilibration time of 15 minutes.

SMILES: COc1nc(NCCc2ccc(Cl)cc2Cl)cc(-c2cccc(C(C)(C)C(=O)O)c2)n1 [Dihydrogen phosphate salt, Dihydrogen phosphate salt of 2-(3-{6-[2-(2,4-Dichloro-phenyl)-ethylamino]-2-methoxy-pyrimidin-4-yl}-phenyl)-2-methyl-propionic acid]
- Solubility in FaSSIF (37° C., ug/mL) [1]: 266 µg/mL
- Solubility (PBS pH 7.4, 25° C., μg/mL) [2]: 15 μg/mL
- weight gain during the sorption (DVS) [3]: ~0.9%

SMILES: COc1nc(NCCc2ccc(Cl)cc2Cl)cc(-c2cccc(C(C)(C)C(=O)O)c2)n1 [Free form, 2-(3-{6-[2-(2,4-dichloro-phenyl)-ethylamino]-2-methoxy-pyrimidin-4-yl}-phenyl)-2-methyl-propionic acid]
- Solubility in FaSSIF (37° C., ug/mL) [1]: 14 µg/mL (≈ 30.4 µM)
- Solubility (PBS pH 7.4, 25° C., μg/mL) [2]: <1 μg/mL

SMILES: COc1nc(NCCc2ccc(Cl)cc2Cl)cc(-c2cccc(C(C)(C)C(=O)O)c2)n1 [Hydrochloride salt, 2-(3-{6-[2-(2,4-dichloro-phenyl)-ethylamino]-2-methoxy-pyrimidin-4-yl}-phenyl)-2-methyl-propionic acid]
- Solubility (PBS pH 7.4, 25° C., μg/mL) [2]: 5 μg/mL
